Source: patent publication US12023333B2, “Phenyl-sulfamoyl.benzoyc acids as ERAP1 modulators” (GREY WOLF THERAPEUTICS LIMITED, priority 2019, dated 2024)

Target: T1, Purified ERAP1(37-941)-10His (ERAP1) (Homo sapiens, UniProt Q9NZ08)
T1 construct: Purified ERAP1(37-941)-10His (ERAP1); 10His (C)
Assay: ERAP1 mediated hydrolysis of an amide substrate measured in a biochemical system (10-mer decapeptide substrate)
Conditions: 10-mer substrate, 23° C. for 1 h, excitation 279 nm and emission 355 nm; read-out: IC50 vs Decapeptide WRVYEKC(Dnp)ALK-acid (where Dnp is Dinitrophenyl maleimide) (10-mer)
In short: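 ERAP1(37-941)-10His preincubated with compound in 25 mM Bis-tris propane, 0.05% HPMC, pH 7.75, then reacted 1 h at 23 °C with 10-mer WRVYEKC(Dnp)ALK (100 μM solution added in equal volume). Fluorescence read at ex 279/em 355 nm; IC50 from 4-parameter fit.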

T1 sequence (Q9NZ08 37-941): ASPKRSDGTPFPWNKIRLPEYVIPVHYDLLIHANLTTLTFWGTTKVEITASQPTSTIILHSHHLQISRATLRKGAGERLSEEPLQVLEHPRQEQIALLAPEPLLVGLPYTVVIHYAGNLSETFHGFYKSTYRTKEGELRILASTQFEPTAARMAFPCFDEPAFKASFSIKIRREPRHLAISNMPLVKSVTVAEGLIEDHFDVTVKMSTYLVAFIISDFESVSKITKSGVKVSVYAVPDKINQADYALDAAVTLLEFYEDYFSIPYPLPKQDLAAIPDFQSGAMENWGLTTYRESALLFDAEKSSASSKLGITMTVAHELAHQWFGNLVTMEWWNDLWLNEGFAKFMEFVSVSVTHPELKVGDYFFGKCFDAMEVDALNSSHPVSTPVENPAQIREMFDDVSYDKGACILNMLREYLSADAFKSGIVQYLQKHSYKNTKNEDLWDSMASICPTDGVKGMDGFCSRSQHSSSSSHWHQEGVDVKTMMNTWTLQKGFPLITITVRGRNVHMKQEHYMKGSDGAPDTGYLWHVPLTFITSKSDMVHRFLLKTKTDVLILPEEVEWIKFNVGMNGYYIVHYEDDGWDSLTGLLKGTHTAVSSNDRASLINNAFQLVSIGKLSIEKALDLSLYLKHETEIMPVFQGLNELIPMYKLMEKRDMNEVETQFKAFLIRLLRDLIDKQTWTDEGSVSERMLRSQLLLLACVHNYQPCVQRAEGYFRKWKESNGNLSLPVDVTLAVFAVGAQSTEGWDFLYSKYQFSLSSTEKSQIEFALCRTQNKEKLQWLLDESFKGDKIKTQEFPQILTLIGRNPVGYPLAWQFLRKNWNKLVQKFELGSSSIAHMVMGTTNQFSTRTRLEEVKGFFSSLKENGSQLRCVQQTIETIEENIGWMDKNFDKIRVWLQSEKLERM

| IC50 [nM] | SMILES |
| --- | --- |
| < 500 | CCc1ccc(C(=O)O)cc1S(=O)(=O)Nc1cc(C(F)(F)F)ccc1-n1ccnc1 [Example 50, 3-(N-(2-(imidazol-1-yl)-5-(trifluoromethyl)phenyl)sulfamoyl)-4-ethylbenzoic acid] |
| < 500 | COc1ccc(C(=O)O)cc1S(=O)(=O)Nc1cc(C(F)(F)F)ccc1-c1ccsc1 [Example 20, 4-methoxy-3-(N-(2-(thiophen-3-yl)-5-(trifluoromethyl)phenyl)sulfamoyl) benzoic acid] |
| < 500 | Cc1oncc1-c1ccc(-c2cccnc2)c(NS(=O)(=O)c2cc(C(=O)O)ccc2C2CC2)c1 [Example 167, 4-cyclopropyl-3-(N-(5-(5-methylisoxazol-4-yl)-2-(pyridin-3-yl)phenyl)sulfamoyl)benzoic acid] |
| < 500 | Cc1oncc1-c1cc(NS(=O)(=O)c2cc(C(=O)O)ccc2C2CC2)c(-n2cccc2)cc1F [Example 202, 4-cyclopropyl-3-(N-(4-fluoro-5-(5-methylisoxazol-4-yl)-2-(pyrrol-1-yl)phenyl)sulfamoyl)benzoic acid] |
| < 500 | Cn1nccc1-c1cc(NS(=O)(=O)c2cc(C(=O)O)ccc2C2CC2)c(-n2cccc2)cc1F [Example 199, 4-cyclopropyl-3-(N-(4-fluoro-5-(1-methylpyrazol-5-yl)-2-(pyrrol-1-yl)phenyl)sulfamoyl)benzoic acid] |
| < 500 | CCc1ccc(C(=O)O)cc1S(=O)(=O)Nc1cc(C#N)ccc1-c1ccccn1 [Example 38, 3-(N-(5-cyano-2-(pyridin-2-yl)phenyl)sulfamoyl)-4-ethylbenzoic acid] |
| < 500 | O=C(O)c1ccc(C2CC2)c(S(=O)(=O)Nc2cc(-c3ccns3)ccc2-c2cccs2)c1 [Example 146, 4-cyclopropyl-3-(N-(5-(isothiazol-5-yl)-2-(thiophen-2-yl)phenyl)sulfamoyl)benzoic acid] |
| < 5000 | COc1ccc(C(=O)O)cc1S(=O)(=O)Nc1cc(C(F)(F)F)ccc1-c1cnco1 [Example 25, 4-methoxy-3-(N-(2-(oxazol-5-yl)-5-(trifluoromethyl)phenyl)sulfamoyl) benzoic acid] |
| < 500 | O=C(O)c1ccc(C2CC2)c(S(=O)(=O)Nc2cc(C(F)(F)F)ccc2-c2cccc(F)c2)c1 [Example 92, 4-cyclopropyl-3-(N-(3′-fluoro-4-(trifluoromethyl)-[1,1′-biphenyl]-2-yl)sulfamoyl)benzoic acid] |
| < 500 | COc1ccc(C(=O)O)cc1S(=O)(=O)Nc1cc(C#N)ccc1-c1ccc(Cl)s1 [Example 90, 3-(N-(2-(5-chlorothiophen-2-yl)-5-cyanophenyl)sulfamoyl)-4-methoxybenzoic acid] |
| < 500 | CS(=O)(=O)c1ccc(-c2ccc(F)s2)c(NS(=O)(=O)c2cc(C(=O)O)ccc2C2CC2)c1 [Example 116, 4-cyclopropyl-3-(N-(2-(5-fluorothiophen-2-yl)-5-(methylsulfonyl)-phenyl)sulfamoyl)benzoic acid] |
| < 500 | COc1ccc(C(=O)O)cc1S(=O)(=O)Nc1cc(C(F)(F)F)ccc1-c1ccc(F)s1 [Example 117, 3-(N-(2-(5-fluorothiophen-2-yl)-5-(trifluoromethyl)phenyl)sulfamoyl)-4-methoxybenzoic acid] |
| < 5000 | COc1ccc(C(=O)O)cc1S(=O)(=O)Nc1cc(C(F)(F)F)ccc1-c1ccccc1Cl [Example 10, 3-(N-(2′-chloro-4-(trifluoromethyl)-[1,1′-biphenyl]-2-yl)sulfamoyl)-4-methoxybenzoic acid] |
| < 500 | N#Cc1ccc(-c2cccc(F)c2)c(NS(=O)(=O)c2cc(C(=O)O)ccc2C2CC2)c1 [Example 94, 3-(N-(4-cyano-3′-fluoro-[1,1-biphenyl]-2-yl)sulfamoyl)-4-cyclopropylbenzoic acid] |
| < 500 | COc1ccc(C(=O)O)cc1S(=O)(=O)Nc1cc(C#N)ccc1-c1cccc(F)c1 [Example 61, 3-(N-(4-cyano-3′-fluoro-[1,1′-biphenyl]-2-yl)sulfamoyl)-4-methoxybenzoic acid] |
| < 500 | CCc1ccc(C(=O)O)cc1S(=O)(=O)Nc1cc(S(C)(=O)=O)ccc1-c1cccc(F)c1 [Example 33, 4-ethyl-3-(N-(3′-fluoro-4-(methylsulfonyl)-[1,1-biphenyl]-2-yl)sulfamoyl)benzoic acid] |
| < 500 | N#Cc1ccc(-c2ccccn2)c(NS(=O)(=O)c2cc(C(=O)O)ccc2C2CC2)c1 [Example 83, 3-(N-(5-cyano-2-(pyridin-2-yl)phenyl)sulfamoyl)-4-cyclopropylbenzoic acid] |
| < 500 | N#Cc1ccc(-c2cccnc2)c(NS(=O)(=O)c2cc(C(=O)O)ccc2C2CC2)c1 [Example 97, 3-(N-(5-cyano-2-(pyridin-3-yl)phenyl)sulfamoyl)-4-cyclopropylbenzoic acid] |
| < 500 | CCc1ccc(C(=O)O)cc1S(=O)(=O)Nc1cc(C#N)ccc1-c1cccs1 [Example 43, 3-(N-(5-cyano-2-(thiophen-2-yl)phenyl)sulfamoyl)-4-ethylbenzoic acid] |

| IC50 [nM] | SMILES |
| --- | --- |
| < 500 | COc1ccc(C(=O)O)cc1S(=O)(=O)Nc1cc(C(F)(F)F)c(Cl)cc1-n1cccc1 [Example 158, 3-(N-(4-chloro-2-(pyrrol-1-yl)-5-(trifluoromethyl)phenyl)sulfamoyl)-4-methoxybenzoic acid] |
| < 500 | O=C(O)c1ccc(C2CC2)c(S(=O)(=O)Nc2cc(-c3ccns3)ccc2-c2cccc(F)c2)c1 [Example 137, 4-cyclopropyl-3-(N-(3′-fluoro-4-(isothiazol-5-yl)-[1,1′-biphenyl]-2-yl)sulfamoyl)benzoic acid] |
| < 500 | CS(=O)(=O)c1ccc(-c2cccs2)c(NS(=O)(=O)c2cc(C(=O)O)ccc2C2CC2)c1 [Example 74, 4-cyclopropyl-3-(N-(5-(methylsulfonyl)-2-(thiophen-2-yl)phenyl)sulfamoyl) benzoic acid] |
| < 500 | CCc1ccc(C(=O)O)cc1S(=O)(=O)Nc1cc(C#N)ccc1-c1ccccc1 [Example 40, 3-(N-(4-cyano-[1,1′-biphenyl]-2-yl)sulfamoyl)-4-ethylbenzoic acid] |
| < 500 | O=C(O)c1ccc(C2CC2)c(S(=O)(=O)Nc2cc(-n3cnnn3)ccc2-n2cccc2)c1 [Example 208, 3-(N-(2-(pyrrol-1-yl)-5-(tetrazol-1-yl)phenyl)sulfamoyl)-4-cyclopropylbenzoic acid] |
| < 500 | Cc1ccc(-c2ccc(S(C)(=O)=O)cc2NS(=O)(=O)c2cc(C(=O)O)ccc2C2CC2)s1 [Example 103, 4-cyclopropyl-3-(N-(5-(methylsulfonyl)-2-(5-methylthiophen-2-yl)phenyl)sulfamoyl)benzoic acid] |
| < 5000 | COc1ccc(C(=O)O)cc1S(=O)(=O)Nc1cc(C(F)(F)F)ccc1-c1ccnn1CC(C)C [Example 5, 3-(N-(2-(1-isobutylpyrazol-5-yl)-5-(trifluoromethyl)phenyl)sulfamoyl)-4-methoxybenzoic acid] |
| < 500 | Cn1nccc1-c1cc(NS(=O)(=O)c2cc(C(=O)O)ccc2C2CC2)c(-c2ccccn2)cc1F [Example 185, 4-cyclopropyl-3-(N-(4-fluoro-5-(1-methylpyrazol-5-yl)-2-(pyridin-2-yl)phenyl)sulfamoyl)benzoic acid] |
| < 500 | N#Cc1cc(NS(=O)(=O)c2cc(C(=O)O)ccc2C2CC2)c(-c2ccc(Cl)s2)cc1Cl [Example 134, 3-(N-(4-chloro-2-(5-chlorothiophen-2-yl)-5-cyanophenyl)sulfamoyl)-4-cyclopropylbenzoic acid] |
| < 500 | CS(=O)(=O)c1ccc(-c2ccccn2)c(NS(=O)(=O)c2cc(C(=O)O)ccc2C2CC2)c1 [Example 82, 4-cyclopropyl-3-(N-(5-(methylsulfonyl)-2-(pyridin-2-yl)phenyl)sulfamoyl) benzoic acid] |
| < 500 | CS(=O)(=O)c1ccc(-c2ccc(C3CC3)s2)c(NS(=O)(=O)c2cc(C(=O)O)ccc2C2CC2)c1 [Example 115, 4-cyclopropyl-3-(N-(2-(5-cyclopropylthiophen-2-yl)-5-(methylsulfonyl)phenyl)sulfamoyl)benzoic acid] |
| < 500 | CCc1ccc(C(=O)O)cc1S(=O)(=O)Nc1cc(C(F)(F)F)ccc1-c1ccccn1 [Example 37, 4-ethyl-3-(N-(2-(pyridin-2-yl)-5-(trifluoromethyl)phenyl)sulfamoyl)benzoic acid] |
| < 500 | CCc1ccc(C(=O)O)cc1S(=O)(=O)Nc1cc(C(F)(F)F)ccc1-c1cccc(C#N)c1 [Example 21, 3-(N-(3′-cyano-4-(trifluoromethyl)-[1,1′-biphenyl]-2-yl)sulfamoyl)-4-ethylbenzoic acid] |
| < 500 | COc1ccc(C(=O)O)cc1S(=O)(=O)Nc1cc(C(F)(F)F)ccc1-c1ccccc1 [Example 1, 4-methoxy-3-(N-(4-(trifluoromethyl)-[1,1′-biphenyl]-2-yl)sulfamoyl)benzoic acid] |
| < 500 | N#Cc1cc(NS(=O)(=O)c2cc(C(=O)O)ccc2C2CC2)c(-c2ccsn2)cc1Cl [Example 180, 3-(N-(4-chloro-5-cyano-2-(isothiazol-3-yl)phenyl)sulfamoyl)-4-cyclopropylbenzoic acid] |
| < 500 | N#Cc1cc(NS(=O)(=O)c2cc(C(=O)O)ccc2C2CC2)c(-c2cscn2)cc1F [Example 196, 3-(N-(5-cyano-4-fluoro-2-(thiazol-4-yl)phenyl)sulfamoyl)-4-cyclopropylbenzoic acid] |
| < 500 | CCc1ccc(C(=O)O)cc1S(=O)(=O)Nc1cc(S(C)(=O)=O)ccc1-c1ccc(F)s1 [Example 106, 4-ethyl-3-(N-(2-(5-fluorothiophen-2-yl)-5-(methylsulfonyl)phenyl)sulfamoyl)benzoic acid] |
| < 500 | CCc1ccc(C(=O)O)cc1S(=O)(=O)Nc1cc(-n2cnnn2)ccc1-c1cccc(F)c1 [Example 53, 4-ethyl-3-(N-(3′-fluoro-4-(tetrazol-1-yl)-[1,1′-biphenyl]-2-yl)sulfamoyl) benzoic acid] |
